Source: patent US20140143910A1, “COMPOSITION THAT AUGMENTS PLANT DISEASE RESISTANCE AND/OR BRANCHING” (Riken, priority 2011, published 2014)

Test system: PR1 gene
Experiment: PR1 gene expression by real-time PCR in rosette leaves of wild-type strain and bil3 mutant, treated or untreated with brassinolide
Format: in vivo, Arabidopsis thaliana
Settings: BL-treated bil3 mutant (BIL3 gene-overexpressing), compared with the wild-type strain; FIG. 7
Method: Individuals of the wild-type strain and the bil3 mutant grown in the same way as in Example 1 were treated or untreated with brassinolide (BL), one type of BR, to prepare samples. Total RNA was extracted from the rosette leaf of each strain using RNeasy Plant Mini Kit (Qiagen N.V.). Next, cDNA was synthesized from the extracted total RNA using PrimeScript First-Strand cDNA Synthesis Kit (Takara Bio Inc.). Specific procedures for the total RNA extraction and the cDNA synthesis followed the protocol included in each kit. Subsequently, the expression of the PR1 gene was analyzed by real-time PCR with the synthesized cDNA as a template using primers PR1-RT-F represented by SEQ ID NO: 46 and PR1-RT-R represented by SEQ ID NO: 47, SYBR Premix EX Taq kit (Takara Bio Inc.) and a real-time PCR apparatus Thermal Cycler Dice (Takara Bio Inc.).

Question: How did the “expression level of the PR1 gene, relative value with the BL-untreated wild-type strain as 1” value turn out when `CC(C)[C@H](C)[C@@H](O)[C@H](O)[C@@H](C)[C@H]1CC[C@H]2[C@@H]3COC(=O)[C@H]4C[C@H](O)[C@H](O)C[C@]4(C)[C@H]3CC[C@]12C` [BL, brassinolide] was run?
Answer: approximately 40 times
